Results as given in ChEMBL document CHEMBL3044730, “Synthesis, antimycobacterial, antiviral, antimicrobial activities, and QSAR studies of nicotinic acid benzylidene hydrazide derivatives” (Med Chem Res, 2012).
In brackets after ≈: the same amount, converted by molar mass.

Columns and labels:
Human respirovirus 3 = assay: Antiviral activity against Human parainfluenza virus 3 infected Vero cells assessed as inhibition of virus-induced cytopathicity by microscopy; format: functional, organism-based; details: Human respirovirus 3, Vero
Candida albicans [1] = assay: Antimicrobial activity against Candida albicans after 2 days by serial dilution method; format: functional; design: unit not given here
[2] = system: Mammalian orthoreovirus 1; assay: Antiviral activity against Mammalian orthoreovirus 1 infected Vero cells assessed as inhibition of virus-induced cytopathicity by microscopy; format: functional, organism-based; details: Mammalian orthoreovirus 1, Vero
Coxsackievirus B4 [3] = assay: Antiviral activity against Human coxsackievirus B4 infected human HeLa cells assessed as inhibition of virus-induced cytopathicity by microscopy; format: functional, organism-based; details: Enterovirus B
Escherichia coli = assay: Antimicrobial activity against Escherichia coli after 24 hr by serial dilution method; format: functional; design: unit not given here
[4] = system: Human immunodeficiency virus 1; assay: Antiviral activity against Human immunodeficiency virus 1 IIIB infected MT4 cells assessed as inhibition of virus-induced cytopathic effect after 4 days by MTT assay; format: functional, organism-based; details: MT4, 96 h
Sindbis virus = assay: Antiviral activity against Sindbis virus infected Vero cells assessed as inhibition of virus-induced cytopathicity; format: functional, organism-based
Coxsackievirus B4 [5] = assay: Antiviral activity against Human coxsackievirus B4 infected Vero cells assessed as inhibition of virus-induced cytopathicity; format: functional, organism-based; details: Enterovirus B
[6] = system: Human immunodeficiency virus 2; assay: Antiviral activity against Human immunodeficiency virus type 2 (ISOLATE ROD) infected MT4 cells assessed as inhibition of virus-induced cytopathic effect after 4 days by MTT assay; format: functional, organism-based; details: Human immunodeficiency virus 2, ISOLATE ROD, MT4, 96 h
[7] = Cytotoxicity against Homo sapiens (human) MT4 cells after 4 days by MTT assay; format: cell-based
Vaccinia virus = assay: Antiviral activity against Vaccinia virus infected human HEL cells assessed as inhibition of virus-induced cytopathicity by microscopy; format: functional, organism-based; details: Orthopoxvirus vaccinia
[8] = system: Human herpesvirus 3 strain Oka vaccine; assay: Antiviral activity against Human herpesvirus 3 strain Oka vaccine OKA 07-1 (Varicella zoster virus) infected in human HEL cells assessed as inhibition of virus-induced cytopathicity; format: functional, organism-based; details: Human alphaherpesvirus 3, OKA 07-1, HEL
Human alphaherpesvirus 2 = assay: Antiviral activity against Human herpesvirus 2 strain G infected human HEL cells assessed as inhibition of virus-induced cytopathicity by microscopy; format: functional, organism-based; details: Human alphaherpesvirus 2, strain G
[9] = Cytotoxicity against Homo sapiens (human) HEL cells assessed as alteration in cell morphology by microscopy; format: cell-based
Human alphaherpesvirus 1 [10] = assay: Antiviral activity against TK(-) aciclovir-resistant Human herpesvirus 1 strain KOS infected in human HEL cells assessed as inhibition of virus-induced cytopathicity; format: functional, organism-based; details: Human alphaherpesvirus 1, KOS
[11] = system: Human herpesvirus 5 strain AD169; assay: Antiviral activity against Human herpesvirus 5 strain AD169 Davis infected human HEL cells assessed as inhibition of virus-induced cytopathicity by microscopy; format: functional, organism-based; details: Human betaherpesvirus 5, Davis
[12] = system: Respiratory syncytial virus; assay: Antiviral activity against Respiratory syncytial virus infected human HeLa cells assessed as inhibition of virus-induced cytopathicity by microscopy; format: functional, organism-based
Human alphaherpesvirus 1 [13] = assay: Antiviral activity against Human herpesvirus 1 strain KOS infected in human HEL cells assessed as inhibition of virus-induced cytopathicity by microscopy by microscopy; format: functional, organism-based; details: Human alphaherpesvirus 1, KOS
Bacillus subtilis = assay: Antimicrobial activity against Bacillus subtilis after 24 hr by serial dilution method; format: functional; design: unit not given here
[14] = Cytotoxicity against Chlorocebus aethiops (African green monkey) Vero cells assessed as alteration in cell morphology by microscopy; format: cell-based; details: chlorocebus sabaeus
[15] = Cytotoxicity against Homo sapiens (human) HeLa cells assessed as alteration in cell morphology by microscopy; format: cell-based
Candida albicans [16] = assay: Antimicrobial activity against Candida albicans after 7 days by serial dilution method; format: functional; design: unit not given here
Punta Toro virus = assay: Antiviral activity against Punta Toro virus infected Vero cells assessed as inhibition of virus-induced cytopathicity; format: functional, organism-based
[17] = system: Mycobacterium tuberculosis; assay: Antimicrobial activity against Mycobacterium tuberculosis by agar dilution method; format: functional
Staphylococcus aureus = assay: Antimicrobial activity against Staphylococcus aureus after 24 hr by serial dilution method; format: functional; design: unit not given here
[18] = system: Vesicular stomatitis virus; assay: Antiviral activity against Vesicular stomatitis virus infected human HeLa cells assessed as inhibition of virus-induced cytopathicity by microscopy; format: functional, organism-based

| Compound | EC50 (Human respirovirus 3) [µg/mL] | -logMIC (Candida albicans [1]) | EC50 [2] [µg/mL] | EC50 (Coxsackievirus B4 [3]) [µg/mL] | -logMIC (Escherichia coli) | EC50 [4] [µg/mL] | EC50 (Sindbis virus) [µg/mL] | EC50 (Coxsackievirus B4 [5]) [µg/mL] | EC50 [6] [µg/mL] | CC50 at 96 h [7] [µg/mL] | EC50 (Vaccinia virus) [µg/mL] | EC50 [8] [µg/mL] | EC50 (Human alphaherpesvirus 2) [µg/mL] | CC50 [9] [µg/mL] | MCC [9] [µg/mL] | EC50 (Human alphaherpesvirus 1 [10]) [µg/mL] | EC50 [11] [µg/mL] | EC50 [12] [µg/mL] | EC50 (Human alphaherpesvirus 1 [13]) [µg/mL] | -logMIC (Bacillus subtilis) | further results |
| --- | --- | --- | --- | --- | --- | --- | --- | --- | --- | --- | --- | --- | --- | --- | --- | --- | --- | --- | --- | --- | --- |
| COc1ccc(/C=N/NC(=O)c2cccnc2)cc1 | > 100 | 1.31 | > 100 | > 100 | 1.31 | > 99 | > 100 | > 100 | > 99 | 99 (≈ 388 µM) | > 100 | > 100 | > 100 | > 100 | > 100 | > 100 | > 100 | > 100 | > 100 | 1.31 | MCC [14]: > 100 µg/mL; MCC [15]: > 100 µg/mL; -logMIC (Candida albicans [16]): 1.61; EC50 (Punta Toro virus): > 100 µg/mL; MIC [17]: > 25 µg/mL; -logMIC (Staphylococcus aureus): 1.31; EC50 [18]: > 100 µg/mL |
| O=C(N/N=C/c1ccccc1[N+](=O)[O-])c1cccnc1 | > 100 | 1.33 | > 100 | > 100 | 1.33 | > 68 | > 100 | > 100 | > 68 | 68 (≈ 252 µM) | > 100 | > 100 | > 100 | 46 (≈ 170 µM) | > 100 | > 100 | > 100 | > 100 | > 100 | 1.94 | MCC [14]: > 100 µg/mL; MCC [15]: > 100 µg/mL; -logMIC (Candida albicans [16]): 1.94; EC50 (Punta Toro virus): > 100 µg/mL; MIC [17]: > 25 µg/mL; -logMIC (Staphylococcus aureus): 1.33; EC50 [18]: > 100 µg/mL |
| O=C(N/N=C/c1cccc([N+](=O)[O-])c1)c1cccnc1 | > 100 | 1.33 | > 100 | > 4 | 1.94 | > 54 | > 100 | > 100 | > 54 | 54 (≈ 200 µM) | > 100 | > 100 | > 100 | 13 (≈ 48.1 µM) | > 100 | > 100 | > 20 | > 4 | > 100 | 1.64 | MCC [14]: ≥ 100 µg/mL; MCC [15]: 20 µg/mL; -logMIC (Candida albicans [16]): 1.64; EC50 (Punta Toro virus): > 100 µg/mL; MIC [17]: > 25 µg/mL; -logMIC (Staphylococcus aureus): 1.33; EC50 [18]: > 4 µg/mL |
| O=C(N/N=C/c1ccc([N+](=O)[O-])cc1)c1cccnc1 | > 0.8 | 1.33 | > 0.8 | > 0.16 | 1.94 | > 0.1 | > 0.8 | > 0.8 | > 0.1 | 0.1 (≈ 0.37 µM) | > 0.8 | > 0.16 | > 0.8 | < 0.16 | ≥ 0.8 | > 0.8 | > 0.16 | > 0.16 | > 0.8 | 1.33 | MCC [14]: ≥ 0.8 µg/mL; MCC [15]: 0.8 µg/mL; -logMIC (Candida albicans [16]): 1.33; EC50 (Punta Toro virus): > 0.8 µg/mL; MIC [17]: > 25 µg/mL; -logMIC (Staphylococcus aureus): 1.03; EC50 [18]: > 0.16 µg/mL |
| O=C(N/N=C/c1cccc(O)c1)c1cccnc1 | > 100 | 1.28 | > 100 | > 100 | 1.29 | > 98 | > 100 | > 100 | > 98 | 98 (≈ 406 µM) | > 100 | > 100 | > 100 | > 100 | > 100 | > 100 | > 100 | > 100 | > 100 | 1.29 | MCC [14]: > 100 µg/mL; MCC [15]: > 100 µg/mL; -logMIC (Candida albicans [16]): 1.29; EC50 (Punta Toro virus): > 100 µg/mL; MIC [17]: > 25 µg/mL; -logMIC (Staphylococcus aureus): 1.29; EC50 [18]: > 100 µg/mL |
| COc1ccc(OC)c(/C=N/NC(=O)c2cccnc2)c1 | > 100 | 1.36 | > 100 | > 100 | 1.96 | > 13 | > 100 | > 100 | > 13 | 13 (≈ 45.6 µM) | > 20 | > 20 | > 20 | 12 (≈ 42.1 µM) | 100 | > 20 | > 20 | > 100 | > 20 | 1.36 | MCC [14]: > 100 µg/mL; MCC [15]: > 100 µg/mL; -logMIC (Candida albicans [16]): 1.96; EC50 (Punta Toro virus): > 100 µg/mL; MIC [17]: > 25 µg/mL; -logMIC (Staphylococcus aureus): 1.36; EC50 [18]: > 100 µg/mL |
| COc1cc(/C=N/NC(=O)c2cccnc2)ccc1O | > 100 | 1.34 | > 100 | > 100 | 0.43 | > 93 | > 100 | > 100 | > 93 | ≥ 93 | > 20 | > 100 | > 20 | > 100 | 100 | > 20 | > 20 | > 100 | > 20 | 0.43 | MCC [14]: > 100 µg/mL; MCC [15]: > 100 µg/mL; -logMIC (Candida albicans [16]): 1.64; EC50 (Punta Toro virus): > 100 µg/mL; MIC [17]: > 25 µg/mL; -logMIC (Staphylococcus aureus): 0.43; EC50 [18]: > 100 µg/mL |
| CCOc1cc(/C=N/NC(=O)c2cccnc2)ccc1O | > 100 | 1.36 | > 100 | > 100 | 1.06 | > 117 | > 100 | > 100 | > 117 | ≥ 117 | > 20 | > 70 | > 20 | 63 (≈ 221 µM) | 100 | > 20 | > 20 | > 100 | > 20 | 1.36 | MCC [14]: > 100 µg/mL; MCC [15]: > 100 µg/mL; -logMIC (Candida albicans [16]): 1.96; EC50 (Punta Toro virus): > 100 µg/mL; MIC [17]: > 25 µg/mL; -logMIC (Staphylococcus aureus): 1.36; EC50 [18]: > 100 µg/mL |
